Assay results published in patent US12097189B1, “Pharmaceutical composition for modified release” (ASTELLAS PHARMA INC., priority 2024, dated 2024).

Assays:
[1] = Elimination half-life of compound A; settings: in vivo; read-out: elimination half-life (T1/2)
Excerpt: Taking into consideration the results of the clinical trial described above, the present inventors conducted intensive studies to design the formulation by paying attention to the control of a release rate of the drug from a formulation to the extent that the release is not affected by food intake or the like, rather than the addition of release control.

[2] = Pharmacokinetics (PK) test of immediate release formulation (capsule formulation) in human: Cmax and heart rate; assay type: in vivo; settings: healthy subjects; immediate release capsules, 0.1 mg to 340 mg
Method: An immediate release formulation (capsule formulation) containing compound A was administered to healthy subjects in a fasted state, before 30 min from the intake of a meal, or after 30 min from the meal, and the drug concentration in the plasma was measured. The immediate release formulations (capsule formulations) containing 0.1 mg, 1 mg, 5 mg, 20 mg, and 80 mg of the compound A were used in combinations as needed so that the dose of compound A became 0.1 mg, 1 mg, 3 mg, 10 mg, 30 mg, 100 mg, 160 mg, 240 mg, and 340 mg.

Nc1nc(CC(=O)Nc2ccc(CCNC[C@H](O)c3ccccc3)cc2)cs1 [compound A, (R)-2-(2-aminothiazol-4-yl)-4′-[2-[(2-hydroxy-2-phenylethyl)amino]ethyl]acetic acid anilide]
half-life [1]: 18 to 24 h
relation between maximum plasma concentration (Cmax) and increase in heart rate from the base line [2]: a positive correlation was observed
